Experimental data reported in US20260015387A1, “MITOCHONDRIAL ANTIOXIDANT PEPTIDES” (priority 2022, published 2026).
pEC50: −log10 of the molar value. Like-named read-outs stand apart in the source and are kept apart here. Square brackets hold non-standard residues; d marks the D form. Dmt = Cc1cc(O)cc(C)c1C[C@H](N)C(=O)O

Assays:
16HBE41o-cells = type: cell-based; conditions: for Protection against HOCl-mediated cell death: cells treated with 200 μM HOCl, MTT assay
Method: 16HBE41o-cells were treated with 200 μM of HOCl for 60 min in PBS with or without increasing concentrations of peptides. Cells were washed and then placed back in media and cell viability was assess at 24 hours using the MTT assay. % Protection was determined by normalizing data to cell viability with and without oxidant.
An HOCl protection assay using 16HBE41o-cells was performed. This assay measured protection against cell death using HOCl as the oxidant. RH8=2TH peptide and RH9=His peptide. […] For this assay, 16HBE41o-cells were treated with 200 μM of HOCl for 60 minutes in PBS with or without increasing concentrations of test compounds. Cells were washed and then placed back in media and cell viability was assess at 24 hours using the MTT assay. % Protection was determined by normalizing data to cell viability with and without oxidant. Data curves were generated using Prism 8 software (GraphPad) for 50% effective concentration (EC50) determinations and their respective 95% confidence intervals.

[1] = DPPH antioxidant activity (radical quenching); conditions: compared to the SS-31 peptide (FIG. 3)
Method: Experiments were performed to determine DPPH antioxidant activity. Radical concentration of DPPH was determined after reacting with varying concentrations of peptide. DPPH is an organic radical with a peak ABS at 525 nm.

[2] = Hydroxyl radical scavenging measured by EPR; conditions: DMPO trap, compared to the SS-31 peptide (FIG. 7)
Method: Hydroxyl radical scavenging activity of peptides measured by electron paramagnetic resonance (EPR). Hydroxyl radical was generated by a reaction of 0.8 mM FeSO4, with 0.8-mM H2O2, pH 7.0 (250 μL). The hydroxyl radicals were trapped with 5,5-dimethyl-1-pyrroline-N-oxide (DMPO) prior to obtaining spectra.

cardiolipin = assay: Cardiolipin binding assay (cytochrome c reduction by ascorbate); conditions: compared to SS31 (FIG. 18)
Text: Cardiolipin binds to cytochrome c, preventing it from being reduced by ascorbate. When the peptide binds cardiolipin, cytochrome c is free to be reduced by ascorbate.

[3] = system: Human HMESO malignant mesothelioma cells; assay: ROS glow assay (cellular H2O2 levels); type: cell-based; conditions: 250 mM peptide, 50 μM menadione, 4 hours; compared to the SS-31 peptide (FIG. 8)
Method: An ROS glow assay was also performed. The assay measures the levels of H2O2 after injury to the cell. Human HMESO malignant mesothelioma cells were incubated with […] of WT, 2-TH or His compound with the addition 50 μM menadione and the H2O2 substrate for 4 hours (in duplicate). The reaction was quenched with addition of the H2O2 detection substrate. Luminescence levels were measured in a plate reader after 30 minutes of incubation.

[4] = In vitro antioxidant capacity studies; conditions: in vitro data
Text: Various in vitro antioxidant capacity studies and some cell-based protection assays have been performed. […] This is especially true for HOCl-mediated injury as illustrated in FIG. 9.

[5] = ABTS radical quenching assay; conditions: FIGS. 4-6
Method: ABTS assays were also performed. ABTS is a radical cation that is blue in color and absorbs light at 734 nm. 7 mM AzBTS was mixed in water with 2.45 mM potassium persulfate and left 16 hrs in the dark at rt to oxidize. […] The ABTS solution was diluted to an absorbance of ˜0.7 at 734 nm. Samples were assayed with ABTS: 990 μL ABTS solution+10 μL sample. Stocks of peptides were made with concentrations in the range of 0.1 mM to 3.2 mM. This assay may be a better choice than DPPH if there is less steric hindrance. FIGS. 4-6 show the results of these experiments.

[6] = system: cellular reactive oxygen species; conditions: ROS caused by 1-butyl hydroperoxide; cited from earlier work
[7] = after global ischemia; cited from earlier work

| Compound | pEC50 (16HBE41o-cells; cells treated with 200 μM HOCl for 60 min in PBS, viability at 24 hours, MTT, read-out: EC50 of protection against HOCl-mediated cell death) | Protection against HOCl-mediated cell death (16HBE41o-cells) | Scavenging of the DPPH radical [1] | Scavenging of the hydroxyl radical [2] | Binding to cardiolipin (CL) (cardiolipin) | Cellular levels of H2O2 [3] | Antioxidant activity (overall comparison) [4] | Protection against HOCl-mediated cell death (16HBE41o-cells; listed as WT peptide) | Quenching of the ABTS radical [5] | Scavenging of cellular reactive oxygen species [6] | Prevention of reperfusion-associated myocardial stunning [7] |
| --- | --- | --- | --- | --- | --- | --- | --- | --- | --- | --- | --- |
| N=C(N)NCCC[C@@H](N)C(=O)N[C@@H](Cc1c[nH]c(=S)[nH]1)C(=O)N[C@@H](CCCCN)C(=O)N[C@@H](Cc1ccccc1)C(N)=O [RH8] | 4.30 | protects strongly | better at scavenging the DPPH radical | better at scavenging | binds to CL equally well as SS31 | significantly lower compared to the SS-31 peptide | significantly better antioxidant than the SS-31 peptide |  |  |  |  |
| H-[dR][Dmt]KF-NH2 [SS-31] |  | did not protect against HOCl-mediated injury at all |  |  |  |  |  | did not show any protection | quenches the ABTS radical better | scavenged cellular reactive oxygen species | prevented reperfusion-associated myocardial stunning |
